The results in this text go back to patent US11766470B2, “Manufacture, formulation and dosing of apraglutide” (VectivBio AG, priority 2020, dated 2023).

Square brackets hold non-standard residues; d marks the D form. Peptide text beside a SMILES is read from it. ξ: configuration not given here. Ile(3ξ) = CCC(C)[C@H](N)C(=O)O; Thr(3ξ) = CC(O)[C@H](N)C(=O)O; Nle = CCCC[C@H](N)C(=O)O

One data set in a line: clinical. Particulars: human, in vivo; for half-life: t1/2, arithmetic mean ± SD; for CL/F: sc.
Another data set deals with T1, hGLP-2 receptor (Homo sapiens, UniProt O95838).
T1 construct: expressed in transfected cells; host or cells: HEK-293 (human embryonic kidney), transient transfection
T1 sequence (O95838 1-553): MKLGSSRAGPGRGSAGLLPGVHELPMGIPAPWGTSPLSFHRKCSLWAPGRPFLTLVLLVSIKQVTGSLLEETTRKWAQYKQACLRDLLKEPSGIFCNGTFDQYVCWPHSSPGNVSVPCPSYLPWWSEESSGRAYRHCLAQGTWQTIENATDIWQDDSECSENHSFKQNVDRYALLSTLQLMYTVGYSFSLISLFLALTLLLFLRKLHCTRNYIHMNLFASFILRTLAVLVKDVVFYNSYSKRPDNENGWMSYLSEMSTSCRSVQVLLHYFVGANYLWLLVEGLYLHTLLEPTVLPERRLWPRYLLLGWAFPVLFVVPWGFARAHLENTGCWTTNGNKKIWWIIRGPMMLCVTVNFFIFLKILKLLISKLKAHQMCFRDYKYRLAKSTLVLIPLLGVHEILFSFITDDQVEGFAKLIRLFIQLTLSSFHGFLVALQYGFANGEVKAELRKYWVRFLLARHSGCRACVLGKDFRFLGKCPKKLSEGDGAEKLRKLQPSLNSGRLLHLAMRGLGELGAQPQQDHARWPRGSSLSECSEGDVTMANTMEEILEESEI
The data set can be described thus: hGLP-2 receptor transcriptional reporter gene assay (cAMP-responsive luciferase) in HEK-293 cells (Example 2). The format is cell-based. The source says: To determine activities of GLP-2 agonists of the present disclosure on the hGLP-2 receptor, a transcriptional reporter gene assay is used. Two constructs are transiently transfected into a human embryonic kidney cell line (HEK-293): an hGLP-2 receptor expression DNA construct and a reporter DNA construct containing intracellular cAMP-responsive promoter elements regulating expression of firefly luciferase. (See for example HimmLer et al., J. Recept. Res., (1993), 13, […] for further guidance on this assay.)
Cells are exposed for 5 hours to serial dilutions of compounds diluted half-log per dose. After exposure to compounds, cells are lysed, luciferase activity is determined, and compound efficacies and EC50 values are determined by non-linear regression analysis. hGLP-2, a naturally occurring 33-amino acid peptide ligand, is used as an internal control in each experiment.
(Reporter assays use an easily measured gene product as a stand-in for the process of interest.)

Protocol for clinical: 23 healthy adult volunteers received 6 weekly subcutaneous doses of apraglutide (1, 5, or 10 mg) or placebo and were followed for a further 6 weeks after the last dose. Blood collections were controlled for diet, lifestyle, and diurnal effects. […] PK data underwent non-compartmental analysis and PD data were analyzed by ANCOVA.
As with citrulline, a statistical steady-state analysis per dose level was performed for apraglutide using Helmert's approach.

For `CCCC[C@H](NC(=O)[C@H](CCC(=O)O)NC(=O)[C@H](CC(=O)O)NC(=O)[C@H](CO)NC(=O)[C@H](Cc1ccccc1)NC(=O)[C@H](CO)NC(=O)CNC(=O)[C@H](CC(=O)O)NC(=O)CNC(=O)[C@@H](N)Cc1c[nH]cn1)C(=O)N[C@H](Cc1ccccc1)C(=O)N[C@H](C(=O)N[C@H](C(=O)N[C@@H](CC(C)C)C(=O)N[C@@H](CC(=O)O)C(=O)N[C@@H](CC(C)C)C(=O)N[C@@H](CC(C)C)C(=O)N[C@@H](C)C(=O)N[C@@H](C)C(=O)N[C@@H](CCCNC(=N)N)C(=O)N[C@@H](CC(=O)O)C(=O)N[C@@H](Cc1ccccc1)C(=O)N[C@H](C(=O)N[C@@H](CC(N)=O)C(=O)N[C@@H](Cc1c[nH]c2ccccc12)C(=O)N[C@@H](CC(C)C)C(=O)N[C@H](C(=O)N[C@@H](CCC(N)=O)C(=O)N[C@H](C(=O)N[C@@H](CCCCN)C(=O)N[C@H](C(=O)N[C@H](C(=O)N[C@@H](CC(=O)O)C(N)=O)C(C)O)C(C)CC)C(C)O)C(C)CC)C(C)CC)C(C)CC)C(C)O` (stereo partly drawn) [apraglutide, L-histidyl-glycyl-L-aspartyl-glycyl-L-seryl-L-phenylalanyl-L-seryl-L-aspartyl-L-glutamyl-L-norleucyl-D-phenylalanyl-L-threonyl-Lisoleucyl-L-leucyl-L-aspartyl-L-leucyl-L-leucyl-L-alanyl-L-alanyl-L-arginyl-L-aspartyl-L-phenylalanyl-L-isoleucyl-L-asparaginyl-Ltryptophanyl-L-leucyl-L-isoleucyl-L-glutaminyl-L-threonyl-L-lysyl-L-isoleucyl-L-threonyl-Laspartic acid amide] (H-HGDGSFSDE[Nle][dF][Thr(3ξ)][Ile(3ξ)]LDLLAARDF[Ile(3ξ)]NWL[Ile(3ξ)]Q[Thr(3ξ)]K[Ile(3ξ)][Thr(3ξ)]D-NH2), the Vd/F in the data set “clinical” (5 mg) was determined as 55.4 L; in the data set “clinical” (10 mg) it was 105 L. The values for the half-life in “clinical” (5 mg) and in the data set “clinical” (10 mg) were 73 h and 76.3 h, respectively. Further, the CL/F in “clinical” (1 mg) is 12.2 mL/min; in “clinical” (5 mg), 11.4 mL/min; in the data set “clinical” (10 mg) it was 14.4 mL/min. The “Agonist activity, potency and selectivity at the GLP-2 receptor, in words” value on hGLP-2 receptor was “selective, full agonist of the GLP-2 receptor with potency and selectivity comparable to native GLP-2”.

In general, Vd/F refers to the apparent distribution volume after extravascular dosing. A word on the half-life: it is the time needed for the level to fall by half in the phase considered. What is called CL/F is the apparent clearance, not corrected for the fraction that reaches the circulation.
